Counter-ions that a name gives are not always drawn. Like-named read-outs stand apart in the source and are kept apart here.
How the values were obtained:
[1] = cited from earlier work
gastric acid secretion = experiment: Gastric secretion in the pylorus-ligated rat (modified Shay procedure); type: in vivo; settings: intraduodenal, 4 hours after ligation, read-out: % Inhibition of acid output; for inhibition in vivo at 16 mg/kg: 16 mg/kg i.d.; for inhibition in vivo at 32 mg/kg: 32 mg/kg i.d.; for inhibition in vivo at 4 mg/kg: 4 mg/kg i.d.
Procedure: The procedure for testing gastric secretion in the rat, a modification of the procedure of Shay et al., Gastroenterology, 26, 906-13 (1954) is carried out as follows:
Male Charles River rats weighing 200-300 grams are deprived of food but not water for 24 hours prior to use. Water is, however, withheld during the experiment. The rats are weighed, anesthetized, and the pylorus ligated according to the method of Shay et al. Treatment or vehicle control is then administered interduodenally (i.d.). Rats are housed 2/cage and sacrificed with CO2 four hours after ligation. The stomachs are removed, rinsed, and contents emptied into a graduated centrifuge tube. The tubes are centrifuged for 20 minutes at 2,000 RPM and the volume of gastric juice recorded. Any samples obviously contaminated by feces, food or hemolysis are eliminated. An aliquot of each is frozen for later analysis of Na^+, K^+ and Cl^- concentration. The pH is measured and 1 ml. of gastric juice is titrated with 0.1 N NaOH to a pH of 7.0-7.4. Titratable acid output is calculated in microequivalents and the percent inhibition of acid output is calculated as follows: [formula]

H2 histamine receptors [2] = biological target: T1, H2 histamine receptors (Cavia porcellus, UniProt P47747); experiment: Guinea pig heart (spontaneously beating right atrium) test: antagonism of histamine-induced positive chronotropic response; type: cell-based; settings: 30 min preincubation, 32 °C, pH 7.4
T1 construct: from tissue; host or cells: guinea pig right atrium (spontaneously beating)
Procedure: The guinea pig heart atrium test is carried out as follows:
A guinea pig right atrium is suspended at 1 g. tension (isometric) in a thermostatically controlled (32° C.) tissue bath (10 ml.) containing oxygenated (95% O2; 5% CO2) Krebs-Haenseleit buffer (pH 7.4). The tissue is allowed to stabilize over 1 hour. Individual contractions are recorded with a force-displacement transducer through a strain gauge coupler. A control dose-response curve to histamine in the above described tissue bath is obtained after which the tissue is washed 3 times and allowed to re-equilibrate to basal rate. The test compound is added to the tissue bath at the desired final concentration. Thirty minutes after addition of the compound, a fresh histamine dose response curve is again obtained. Then the response to histamine in the presence of antagonist is compared to the histamine control response. This procedure is repeated, using fresh tissues, for each concentration of antagonist tested.

H2 histamine receptors [3] = settings: cited from earlier work
[4] = histamine dose-response, three experiments, read-out: pA2 Value (apparent dissociation constant of the H2 antagonist) (converted)
[5] = values marked *: result of only one experiment, read-out: pKB value (converted)

T1 sequence (P47747 whole entry): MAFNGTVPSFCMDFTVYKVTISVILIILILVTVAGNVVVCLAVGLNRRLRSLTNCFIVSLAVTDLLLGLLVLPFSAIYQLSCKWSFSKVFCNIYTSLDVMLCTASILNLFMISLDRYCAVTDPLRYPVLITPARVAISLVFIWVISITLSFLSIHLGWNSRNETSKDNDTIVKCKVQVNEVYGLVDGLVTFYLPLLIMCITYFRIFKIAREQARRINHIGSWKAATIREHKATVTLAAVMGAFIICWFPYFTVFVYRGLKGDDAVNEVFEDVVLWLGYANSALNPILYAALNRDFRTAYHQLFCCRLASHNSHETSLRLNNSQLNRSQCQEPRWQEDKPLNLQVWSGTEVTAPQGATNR

## CN/C(=N/CCSCc1nc[nH]c1C)NC#N [Cimetidine]
[1]; elderly patients
  tendency to cause confusional states: tendency to cause confusional states in elderly patients
[1]; patients
  anti-androgenic activity: anti-androgenic activity
  duration of action: short duration of action

## N#Cc1ccc(-c2csc(NC(=N)N)n2)cc1 [Example 1, [4-(4-Cyanophenyl)-2-Thiazolyl]Guanidine, Hydrobromide]
Gastric acid secretion
  inhibition in vivo at 16 mg/kg: 50%

## N#CCc1ccc(-c2csc(NC(=N)N)n2)cc1 [Example 2, [4-[4-(Cyanomethyl)Phenyl]-2-Thiazolyl]Guanidine, Hydrobromide]
Gastric acid secretion
  inhibition in vivo at 32 mg/kg: 79%

## N#Cc1cccc(-c2csc(NC(=N)N)n2)c1 [Example 3, [4-(3-Cyanophenyl)-2-Thiazolyl]Guanidine, Hydrobromide, Hydrate]
H2 histamine receptors [2]; [4]
  Kb: 251 nM
Gastric acid secretion
  inhibition in vivo at 4 mg/kg: 40%

## N=C(N)Nc1nc(-c2cccc(C(=O)O)c2)cs1 [Example 4, 3-[2-[(Aminoiminomethyl)Amino]-4-Thiazolyl]Benzoic Acid, Hydrochloride]
H2 histamine receptors [2]; values marked *: result of only one experiment
  pKB value: 6.1

## N=C(N)Nc1nc(-c2cccc(C(N)=NO)c2)cs1 [Example 5, 3-[2-[(Aminoiminomethyl)Amino]-4-Thiazolyl]-N-Hydroxybenzenecarboximidamide, Dihydrochloride]
H2 histamine receptors [2]; [4]
  Kb: 50.1 nM
Gastric acid secretion
  inhibition in vivo at 32 mg/kg: 68%

## N=C(N)Nc1nc(-c2cccc(C(N)=NOC(N)=O)c2)cs1 [Example 6, N-[(Aminocarbonyl)oxy]-3-[2-[(Aminoiminomethyl)Amino]-4-Thiazolyl]Benzenecarboximidamide, Hydrochloride, Hemihydrate]
H2 histamine receptors [2]; [4]
  Kb: 63.1 nM

## CC(=O)ON=C(N)c1cccc(-c2csc(NC(=N)N)n2)c1 [Example 7, N-(Acetyloxy)-3-[[2-[(Aminoiminomethyl)Amino]-4-Thiazolyl]Benzenecarboximidamide, Dihydrochloride]
H2 histamine receptors [2]; [4]
  Kb: 39.8 nM

## N=C(N)Nc1nc(-c2cccc(-c3noc(C(F)(F)F)n3)c2)cs1 [Example 8, [4-[3-[5-(Trifluoromethyl)-1,2,4-Oxadiazol-3-yl]Phenyl]-2-Thiazoyl]Guanidine, Hydrochloride]
Gastric acid secretion
  inhibition in vivo at 32 mg/kg: 84%

## N=C(N)Nc1nc(-c2cccc(C(=N)N)c2)cs1 [Example 9, 3-[2-[(Aminoiminomethyl)Amino]-4-Thiazolyl]Benzenecarboximidamide, Dihydrobromide, Hemiethanolate]
H2 histamine receptors [2]; [4]
  Kb: 5.01 nM
Gastric acid secretion
  inhibition in vivo at 32 mg/kg: 55%

## CCOC(=N)c1cccc(-c2csc(NC(=N)N)n2)c1 [Example 10, 3-[2-[(Aminoiminomethyl)Amino]-4-Thiazolyl]Benzenecarboximidic Acid Ethyl Ester]
Gastric acid secretion
  inhibition in vivo at 4 mg/kg: 41%

## N=C(N)Nc1nc(-c2cccc(C(N)=O)c2)cs1 [Example 11, 3-[2-[(Aminoiminomethyl)Amino]-4-Thiazolyl]Benzenecarboxamide, Hydrobromide]
H2 histamine receptors [2]; [5]
  Kb: 50.1 nM

## CN=C(N)c1cccc(-c2csc(NC(=N)N)n2)c1 [Example 12, 3-[2-[(Aminoiminomethyl)Amino]-4-Thiazolyl]-N-Methylbenzenecarboximidamide,Quarter Hydrate]
H2 histamine receptors [2]; [5]
  Kb: 6.31 nM
Gastric acid secretion
  inhibition in vivo at 16 mg/kg: 75%

## N=C(N)Nc1nc(-c2cccc(C(=O)NN)c2)cs1 [Example 13, 3-[2-[(Aminoiminomethyl)Amino]-4-Thiazolyl]Benzoic Acid Hydrazide, Hydrochloride]
H2 histamine receptors [2]; [5]
  Kb: 79.4 nM

## CNC(=NC#N)NCCSCc1csc(N=C(N)N)n1 [tiotidine]
H2 histamine receptors [3]
  H2 antagonist activity relative to cimetidine (in words): greater activity than cimetidine

Reference: US4452985A, “2-Guanyl-4-(substituted phenyl) thiazole derivatives” (American Home Products Corporation, priority 1983, dated 1984)
